Measurements from PMC11864979, “First-in-class ultralong-target-residence-time p38α inhibitors as a mitosis-targeted therapy for colorectal cancer” (Nature Cancer, 2025).
Where two headings read alike, the source gives them in different places.

How the values were obtained:
Assay in all cases: selectivity profiling in a panel of 340 wild-type kinases (Reaction Biology Europe)
Format in all cases: binding
[1] = biological target: T1, 340 wild-type kinases (Homo sapiens, UniProt P21709)
T1 construct: purchased Reaction Biology Europe
T1 sequence (P21709 26-976): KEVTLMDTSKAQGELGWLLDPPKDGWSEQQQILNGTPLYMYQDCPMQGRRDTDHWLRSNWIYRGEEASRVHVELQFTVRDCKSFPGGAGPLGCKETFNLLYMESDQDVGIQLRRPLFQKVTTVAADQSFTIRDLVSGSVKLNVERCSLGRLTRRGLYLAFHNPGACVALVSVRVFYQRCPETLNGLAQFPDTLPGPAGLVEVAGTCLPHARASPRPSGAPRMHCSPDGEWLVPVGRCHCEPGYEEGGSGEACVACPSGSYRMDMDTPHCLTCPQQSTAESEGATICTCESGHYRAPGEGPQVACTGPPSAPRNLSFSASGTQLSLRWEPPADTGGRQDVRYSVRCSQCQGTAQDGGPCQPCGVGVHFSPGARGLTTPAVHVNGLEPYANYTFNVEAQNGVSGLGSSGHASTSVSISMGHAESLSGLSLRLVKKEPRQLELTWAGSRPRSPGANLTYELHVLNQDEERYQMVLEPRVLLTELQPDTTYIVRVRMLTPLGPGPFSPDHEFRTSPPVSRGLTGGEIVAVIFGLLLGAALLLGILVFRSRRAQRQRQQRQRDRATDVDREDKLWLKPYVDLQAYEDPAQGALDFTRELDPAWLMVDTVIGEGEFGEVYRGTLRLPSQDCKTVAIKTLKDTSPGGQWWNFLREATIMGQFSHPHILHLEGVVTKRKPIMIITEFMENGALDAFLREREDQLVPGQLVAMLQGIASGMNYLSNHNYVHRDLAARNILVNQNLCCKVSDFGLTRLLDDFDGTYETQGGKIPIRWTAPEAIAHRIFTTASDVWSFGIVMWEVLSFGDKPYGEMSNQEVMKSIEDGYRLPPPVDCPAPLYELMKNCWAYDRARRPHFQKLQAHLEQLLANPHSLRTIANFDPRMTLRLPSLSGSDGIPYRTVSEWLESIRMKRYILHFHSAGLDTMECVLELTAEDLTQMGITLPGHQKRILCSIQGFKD

[2] = biological target: T2, 340 wild-type kinases (Homo sapiens, UniProt P42679)
T2 construct: purchased Reaction Biology Europe
T2 sequence (P42679 1-507): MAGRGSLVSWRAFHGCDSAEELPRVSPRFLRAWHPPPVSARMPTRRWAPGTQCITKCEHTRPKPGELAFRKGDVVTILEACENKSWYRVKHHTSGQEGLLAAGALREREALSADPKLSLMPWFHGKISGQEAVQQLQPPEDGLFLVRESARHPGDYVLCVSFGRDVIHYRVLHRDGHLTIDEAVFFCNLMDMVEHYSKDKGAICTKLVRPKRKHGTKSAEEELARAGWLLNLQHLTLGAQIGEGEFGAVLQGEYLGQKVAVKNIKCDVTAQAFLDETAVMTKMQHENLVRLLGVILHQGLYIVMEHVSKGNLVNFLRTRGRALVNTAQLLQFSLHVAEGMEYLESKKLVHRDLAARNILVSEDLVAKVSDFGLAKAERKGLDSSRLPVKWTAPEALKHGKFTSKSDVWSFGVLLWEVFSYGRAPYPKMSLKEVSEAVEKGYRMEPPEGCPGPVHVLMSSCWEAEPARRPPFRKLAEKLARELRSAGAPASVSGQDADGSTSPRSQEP

[3] = biological target: T3, 340 wild-type kinases (Homo sapiens, UniProt P42684)
T3 construct: purchased Reaction Biology Europe

[4] = biological target: T4, 340 wild-type kinases (Homo sapiens, UniProt P49137)
T4 construct: purchased Reaction Biology Europe

[5] = biological target: T5, 340 wild-type kinases (Homo sapiens, UniProt Q9BUB5)
T5 construct: purchased Reaction Biology Europe

[6] = biological target: T6, 340 wild-type kinases (Homo sapiens, UniProt Q9NWZ3)
T6 construct: purchased Reaction Biology Europe
T6 sequence (Q9NWZ3 1-460): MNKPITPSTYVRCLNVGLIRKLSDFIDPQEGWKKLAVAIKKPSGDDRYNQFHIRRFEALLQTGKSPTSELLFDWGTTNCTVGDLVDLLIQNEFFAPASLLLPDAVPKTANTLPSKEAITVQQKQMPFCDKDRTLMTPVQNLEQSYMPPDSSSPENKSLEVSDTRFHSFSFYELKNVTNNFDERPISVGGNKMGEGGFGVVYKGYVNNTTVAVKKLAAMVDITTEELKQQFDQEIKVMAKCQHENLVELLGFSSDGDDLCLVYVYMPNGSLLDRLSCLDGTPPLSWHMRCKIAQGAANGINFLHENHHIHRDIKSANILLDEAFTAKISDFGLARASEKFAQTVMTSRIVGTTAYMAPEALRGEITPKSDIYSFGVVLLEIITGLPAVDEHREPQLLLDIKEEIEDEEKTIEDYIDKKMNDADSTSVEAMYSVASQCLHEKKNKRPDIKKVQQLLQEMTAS

[7] = biological target: T7, 340 wild-type kinases (Homo sapiens, UniProt Q9Y4K4)
T7 construct: purchased Reaction Biology Europe
T7 sequence (Q9Y4K4 whole entry): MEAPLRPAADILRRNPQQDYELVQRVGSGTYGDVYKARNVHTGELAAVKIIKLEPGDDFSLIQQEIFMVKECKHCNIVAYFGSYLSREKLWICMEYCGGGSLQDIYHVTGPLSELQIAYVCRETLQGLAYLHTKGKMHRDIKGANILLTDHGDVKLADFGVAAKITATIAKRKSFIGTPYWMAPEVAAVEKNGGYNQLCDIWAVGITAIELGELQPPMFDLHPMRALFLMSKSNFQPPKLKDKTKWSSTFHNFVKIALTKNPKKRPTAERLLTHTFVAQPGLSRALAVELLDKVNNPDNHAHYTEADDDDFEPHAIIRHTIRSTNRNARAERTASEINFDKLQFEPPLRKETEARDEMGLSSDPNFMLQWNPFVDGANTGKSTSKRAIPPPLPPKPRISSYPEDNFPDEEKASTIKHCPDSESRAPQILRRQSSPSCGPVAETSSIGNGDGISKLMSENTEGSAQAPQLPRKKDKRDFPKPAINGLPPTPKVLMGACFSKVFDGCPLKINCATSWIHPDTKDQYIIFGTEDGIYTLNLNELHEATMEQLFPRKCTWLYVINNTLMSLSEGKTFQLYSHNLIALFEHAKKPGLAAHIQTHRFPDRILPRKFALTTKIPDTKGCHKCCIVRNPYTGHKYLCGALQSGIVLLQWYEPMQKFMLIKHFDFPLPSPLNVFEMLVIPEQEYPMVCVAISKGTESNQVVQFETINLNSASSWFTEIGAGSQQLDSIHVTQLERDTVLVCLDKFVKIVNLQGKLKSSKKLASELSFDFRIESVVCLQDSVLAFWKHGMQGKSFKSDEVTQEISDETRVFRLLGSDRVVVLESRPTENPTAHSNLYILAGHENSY

T3 sequence (P42684 whole entry): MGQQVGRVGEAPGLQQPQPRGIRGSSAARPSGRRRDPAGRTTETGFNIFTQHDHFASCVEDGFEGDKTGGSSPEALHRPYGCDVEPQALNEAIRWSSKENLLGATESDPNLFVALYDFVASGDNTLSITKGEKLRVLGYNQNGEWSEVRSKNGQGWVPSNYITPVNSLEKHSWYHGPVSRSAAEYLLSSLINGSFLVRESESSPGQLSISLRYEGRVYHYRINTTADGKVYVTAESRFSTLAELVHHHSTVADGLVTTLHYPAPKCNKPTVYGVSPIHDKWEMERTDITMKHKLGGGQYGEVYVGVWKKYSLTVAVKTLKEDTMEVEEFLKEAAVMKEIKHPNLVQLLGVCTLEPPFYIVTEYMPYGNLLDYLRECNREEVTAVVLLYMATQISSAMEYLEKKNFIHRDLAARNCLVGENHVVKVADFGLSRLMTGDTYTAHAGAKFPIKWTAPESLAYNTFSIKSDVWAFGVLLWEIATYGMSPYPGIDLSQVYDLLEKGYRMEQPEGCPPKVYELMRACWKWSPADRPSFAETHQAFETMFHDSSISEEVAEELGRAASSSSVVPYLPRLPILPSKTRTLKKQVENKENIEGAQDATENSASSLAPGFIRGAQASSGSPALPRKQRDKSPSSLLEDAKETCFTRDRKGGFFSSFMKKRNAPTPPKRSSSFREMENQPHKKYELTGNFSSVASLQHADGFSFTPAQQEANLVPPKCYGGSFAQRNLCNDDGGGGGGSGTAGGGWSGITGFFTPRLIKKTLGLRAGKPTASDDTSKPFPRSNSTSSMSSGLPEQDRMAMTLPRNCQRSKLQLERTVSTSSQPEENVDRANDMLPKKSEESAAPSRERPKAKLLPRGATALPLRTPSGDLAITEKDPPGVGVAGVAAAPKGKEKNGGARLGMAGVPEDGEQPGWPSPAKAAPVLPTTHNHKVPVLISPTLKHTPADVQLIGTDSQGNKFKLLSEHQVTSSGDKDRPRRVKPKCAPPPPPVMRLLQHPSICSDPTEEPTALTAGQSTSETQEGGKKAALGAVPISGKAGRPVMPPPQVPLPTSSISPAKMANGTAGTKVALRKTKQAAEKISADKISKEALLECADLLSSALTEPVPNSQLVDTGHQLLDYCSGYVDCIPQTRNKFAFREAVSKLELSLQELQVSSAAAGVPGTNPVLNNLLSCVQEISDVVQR
T4 sequence (P49137 whole entry): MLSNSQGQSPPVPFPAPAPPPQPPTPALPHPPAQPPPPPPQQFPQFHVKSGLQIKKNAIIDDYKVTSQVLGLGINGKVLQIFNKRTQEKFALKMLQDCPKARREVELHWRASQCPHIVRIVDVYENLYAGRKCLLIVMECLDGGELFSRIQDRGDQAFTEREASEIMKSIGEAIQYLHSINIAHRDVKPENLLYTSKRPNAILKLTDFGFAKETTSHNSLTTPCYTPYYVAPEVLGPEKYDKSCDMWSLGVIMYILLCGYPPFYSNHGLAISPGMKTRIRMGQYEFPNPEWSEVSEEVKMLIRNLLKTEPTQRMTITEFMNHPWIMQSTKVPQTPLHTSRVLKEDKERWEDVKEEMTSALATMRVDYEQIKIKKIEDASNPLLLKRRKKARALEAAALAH
T5 sequence (Q9BUB5 whole entry): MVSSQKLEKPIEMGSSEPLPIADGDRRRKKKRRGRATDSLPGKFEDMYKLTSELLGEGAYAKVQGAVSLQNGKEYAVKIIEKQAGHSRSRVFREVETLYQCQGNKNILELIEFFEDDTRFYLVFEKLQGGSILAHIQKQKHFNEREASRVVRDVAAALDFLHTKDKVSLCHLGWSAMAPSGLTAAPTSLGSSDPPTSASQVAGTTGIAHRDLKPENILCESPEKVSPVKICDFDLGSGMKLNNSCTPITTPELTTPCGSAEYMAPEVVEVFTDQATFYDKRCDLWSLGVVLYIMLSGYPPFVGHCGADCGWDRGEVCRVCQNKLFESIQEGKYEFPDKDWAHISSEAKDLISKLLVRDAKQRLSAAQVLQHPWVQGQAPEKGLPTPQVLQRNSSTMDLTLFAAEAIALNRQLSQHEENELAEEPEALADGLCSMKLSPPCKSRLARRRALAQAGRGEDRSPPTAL

CNC(=O)c1ccc2c(c1)C(=O)c1ccc(Nc3ccc(F)c(NC(=O)C4CC4)c3)cc1CC2 [Compound 2015]
remaining activity at 0.2 µM ([1]; 0.2 µM 2015, read-out: EPHA1 residual activity): 87.2% | remaining activity at 1 µM ([1]; 1 µM 2015, read-out: EPHA1 residual activity): 82.1% | remaining activity at 0.2 µM ([1]; EPHA1, 0.2 µM, read-out: residual activity): 87.2% | remaining activity at 1 µM ([1]; EPHA1, 1 µM, read-out: residual activity): 82.1% | remaining activity at 0.2 µM ([2]; 0.2 µM 2015, read-out: MATK residual activity): 112% | remaining activity at 1 µM ([2]; 1 µM 2015, read-out: MATK residual activity): 100% | remaining activity at 0.2 µM ([2]; MATK, 0.2 µM, read-out: residual activity): 112% | remaining activity at 1 µM ([2]; MATK, 1 µM, read-out: residual activity): 100% | remaining activity at 0.2 µM ([3]; 0.2 µM 2015, read-out: ABL2 residual activity): 107% | remaining activity at 1 µM ([3]; 1 µM 2015, read-out: ABL2 residual activity): 102% | remaining activity at 0.2 µM ([3]; ABL2, 0.2 µM, read-out: residual activity): 107% | remaining activity at 1 µM ([3]; ABL2, 1 µM, read-out: residual activity): 102% | remaining activity at 0.2 µM ([4]; 0.2 µM 2015, read-out: MAPKAPK2 residual activity): 153% | remaining activity at 1 µM ([4]; 1 µM 2015, read-out: MAPKAPK2 residual activity): 118% | remaining activity at 0.2 µM ([4]; MAPKAPK2, 0.2 µM, read-out: residual activity): 153% | remaining activity at 1 µM ([4]; MAPKAPK2, 1 µM, read-out: residual activity): 118% | remaining activity at 0.2 µM ([5]; 0.2 µM 2015, read-out: MKNK1 residual activity): 98.2% | remaining activity at 1 µM ([5]; 1 µM 2015, read-out: MKNK1 residual activity): 91.6% | remaining activity at 0.2 µM ([5]; MKNK1, 0.2 µM, read-out: residual activity): 98.2% | remaining activity at 1 µM ([5]; MKNK1, 1 µM, read-out: residual activity): 91.6% | remaining activity at 0.2 µM ([6]; 0.2 µM 2015, read-out: IRAK4 residual activity): 96.5% | remaining activity at 1 µM ([6]; 1 µM 2015, read-out: IRAK4 residual activity): 93.5% | remaining activity at 0.2 µM ([6]; IRAK4, 0.2 µM, read-out: residual activity): 96.5% | remaining activity at 1 µM ([6]; IRAK4, 1 µM, read-out: residual activity): 93.5% | remaining activity at 0.2 µM ([7]; 0.2 µM 2015, read-out: MAP4K5 residual activity): 101% | remaining activity at 1 µM ([7]; 1 µM 2015, read-out: MAP4K5 residual activity): 91.4% | remaining activity at 0.2 µM ([7]; MAP4K5, 0.2 µM, read-out: residual activity): 101% | remaining activity at 1 µM ([7]; MAP4K5, 1 µM, read-out: residual activity): 91.4%
